Test results as given in patent US9956199B2, “Chromane-like cyclic prenylflavonoids for the medical intervention in neurological disorders” (priority 2011, dated 2018).

Tested on: mouse embryonic day 16 forebrain (MEF) cells
Assay: normalized renilla luciferase activity (cell survival / relative cytotoxicity)
Assay type: cell-based
Conditions: three days, FIG. 1D
Description: Luciferase assays were performed using a noncommercial dual luciferase enzyme assay system (Dyer et al., 2000, Anal Biochem). In this system, a co-transfection with pDCX-Luci and a control vector driving Renilla-luciferase under the CMV promoter was performed. The two different luciferases have different specific substrates and, therefore, the DCX regulatory region driven firefly luciferase activity can be distinguished from CMV driven Renilla-luciferase. For analysis, the firefly luciferase activity was normalized against the CMV driven Renilla-luciferase. […]
Elmer, Calif., USA) according to the manufacturer's instructions. Then, 100 μl of freshly prepared Renilla assay solution consisting of 1.1 M NaCl (VWR, Vienna, Austria), 2.2 mM Na2EDTA, 0.22 M KH2PO4 pH 5.1 (Merck, Darmstadt, Germany), 0.44 mg/mL BSA (Biomol, Hamburg, Germany), 1.3 mM NaN3 (Sigma-Aldrich, Taufkirchen, Germany), […] coelenterazine (p.j.k., Kleinblittersdorf, Germany) per well were added and measurements were performed using the Victor™ X Multilable Plate Reader as described above. Data were normalized the following way: i) firefly (FF) luciferase activity is related to the renilla (R) luciferase activity; and ii) the FF/R values of the individual samples are related to the FF/R value obtained by stimulation with the control medium and expressed as x-fold change compared to control. […]

SMILES	normalized renilla activity (approximate measure of cell survival / relative cytotoxicity)
COc1cc2c(c(O)c1C(=O)/C=C/c1ccc(O)cc1)C=CC(C)(C)O2 [Compound 1a, (E)-1-(5-hydroxy-7-methoxy-2,2-dimethyl-2H-chromen-6-yl)-3-(4-hydroxyphenyl)prop-2-en-1-one]	significantly higher than that exerted by the reference compounds xanthohumol and osajin
COc1cc2c(c(O)c1C(=O)/C=C/c1ccc(O)cc1)CCC(C)(C)O2 [Compound 1b, (E)-1-(5-hydroxy-7-methoxy-2,2-dimethylchroman-6-yl)-3-(4-hydroxyphenyl)prop-2-en-1-one]	significantly higher than that exerted by the reference compounds xanthohumol and osajin
